We go through 17 compounds from paper PMC9892044, “Synthesis of new diphenyl urea-clubbed imine analogs and its Implications in diabetic management through in vitro and in silico approaches” (Scientific Reports, 2023).

As to `CCOc1cccc(/C=N/c2ccccc2NC(=O)Nc2ccc(F)cc2)c1O` [Compound 3b, (E)-1-(2-((3-ethoxy-2-hydroxybenzylidene)amino)phenyl)-3-(4-fluorophenyl) urea], the melting point (commonly the temperature of the solid-liquid transition) was 217 to 219 °C. Take `CCOc1cccc(/C=N/c2ccccc2NC(=O)Nc2ccc(C)cc2)c1O` [Compound 3i, (E)-1-(2-((3-ethoxy-2-hydroxybenzylidene)amino)phenyl)-3-(p-tolyl)urea]: the melting point was in the range of 210 to 212 °C. `CCOc1cccc(/C=N/c2ccccc2NC(=O)Nc2ccc(OC)cc2)c1O` [Compound 3e, (E)-1-(2-((3-ethoxy-2-hydroxybenzylidene)amino)phenyl)-3-(4-methoxyphenyl) urea] returned a melting point of 204 to 206 °C. Regarding `COc1cc(/C=N/c2ccccc2NC(=O)Nc2ccc(Cl)cc2)ccc1O` [Compound 3w, (E)-1-(4-chlorophenyl)-3-(2-((4-hydroxy-3-methoxybenzylidene)amino)phenyl) urea], the melting point was in the range of 219 to 221 °C. For `COc1cccc(/C=N/c2ccccc2NC(=O)Nc2cccc(Cl)c2)c1O` [Compound 3l, (E)-1-(3-chlorophenyl)-3-(2-((2-hydroxy-3-methoxybenzylidene)amino)phenyl) urea], the melting point lay in the range of 208 to 210 °C. For `CCOc1cccc(/C=N/c2ccccc2NC(=O)Nc2ccc(Cl)cc2)c1O` [Compound 3f, (E)-1-(4-chlorophenyl)-3-(2-((3-ethoxy-2-hydroxybenzylidene)amino)phenyl) urea], the melting point lay in the range of 218 to 220 °C. Then `COc1cccc(/C=N/c2ccccc2NC(=O)Nc2ccccc2)c1O` [Compound 3u, (E)-1-(2-((2-hydroxy-3-methoxybenzylidene)amino)phenyl)-3-phenylurea], with 188 to 190 °C; and `CCOc1cccc(/C=N/c2ccccc2NC(=O)Nc2ccccc2C)c1O` [Compound 3g, (E)-1-(2-((3-ethoxy-2-hydroxybenzylidene)amino)phenyl)-3-(o-tolyl) urea], with 216 to 218 °C; and `COc1cccc(/C=N/c2ccccc2NC(=O)Nc2ccc(Cl)cc2)c1O` [Compound 3q, (E)-1-(4-chlorophenyl)-3-(2-((2-hydroxy-3-methoxybenzylidene)amino)phenyl) urea], with 218 to 220 °C.

Take `CCOc1cccc(/C=N/c2ccccc2NC(=O)Nc2cccc(C)c2)c1O` [Compound 3h, (E)-1-(2-((3-ethoxy-2-hydroxybenzylidene)amino)phenyl)-3-(m-tolyl) urea]: the melting point lay within 203 to 205 °C. As to `CCOc1cccc(/C=N/c2ccccc2NC(=O)Nc2cccc(Cl)c2)c1O` [Compound 3a, (E)-1-(3-chlorophenyl)-3-(2-((3-ethoxy-2-hydroxybenzylidene)amino)phenyl) urea], the melting point lay within 218 to 220 °C. Take `COc1cccc(/C=N/c2ccccc2NC(=O)Nc2ccc(C(C)=O)cc2)c1O` [Compound 3v, (E)-1-(4-acetylphenyl)-3-(2-((2-hydroxy-3-methoxybenzylidene)amino)phenyl) urea]: the melting point was in the range of 200 to 212 °C. The compound `CCOc1cccc(/C=N/c2ccccc2NC(=O)Nc2ccc3ccccc3c2)c1O` [Compound 3d, (E)-1-(2-((3-ethoxy-2-hydroxybenzylidene)amino)phenyl)-3-(naphthalen-2-yl) urea] had a melting point of 228 to 230 °C. `COc1cccc(/C=N/c2ccccc2NC(=O)Nc2cccc(C)c2)c1O` [Compound 3s, (E)-1-(2-((2-hydroxy-3-methoxybenzylidene)amino)phenyl)-3-(m-tolyl) urea]: the melting point lay within 201 to 203 °C. Consider `COc1cccc(/C=N/c2ccccc2NC(=O)Nc2cccc(F)c2)c1O` [Compound 3n, (E)-1-(3-fluorophenyl)-3-(2-((2-hydroxy-3-methoxybenzylidene)amino)phenyl) urea], for which the melting point lay in the range of 200 to 201 °C. For `COc1cc(/C=N/c2ccccc2NC(=O)Nc2ccccc2C)ccc1O` [Compound 3x, (E)-1-(2-((4-hydroxy-3-methoxybenzylidene)amino)phenyl)-3-(o-tolyl) urea], the melting point was in the range of 200 to 202 °C. `COc1cccc(/C=N/c2ccccc2NC(=O)Nc2ccc3ccccc3c2)c1O` [Compound 3o, (E)-1-(2-((2-hydroxy-3-methoxybenzylidene)amino)phenyl)-3-(naphthalen-2-yl) urea] returned a melting point of 214 to 216 °C.
